Experimental data reported in patent publication US20170190671A1, “BIS(ARYL)CATECHOL DERIVATIVES AS HERBICIDES” (E I DU PONT DE NEMOURS AND COMPANY, priority 2014, published 2017).

How the values were obtained:
Experiment in all cases: Test C postemergence
Type in all cases: in vivo
[1] = system: Italian ryegrass (Lolium multiflorum); conditions: Lolium multiflorum, post-emergence, 336 h, Postemergence, scale 0 to 100, read-out: Plant response rating, Ryegrass, Italian
Summary of the method: (§1)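 Seeds sown in a loam soil and sand blend were treated preemergence; plants in peat-moss/vermiculite medium were sprayed at the 1- to 4-leaf stage (2-18 cm). Chemicals were in a non-phytotoxic surfactant-containing solvent. After 13 to 15 days in a greenhouse, injury was visually rated against controls on a 0-100 scale.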

[2] = system: barnyardgrass (Echinochloa crus-galli); conditions: Echinochloa crus-galli, post-emergence, Postemergence, scale 0 to 100, read-out: Plant response rating, Barnyardgrass
Summary of the method: as §1

[3] = system: blackgrass (Alopecurus myosuroides); conditions: Alopecurus myosuroides, post-emergence, 336 h, Postemergence, scale 0 to 100, read-out: Plant response rating, Blackgrass
Summary of the method: as §1

[4] = system: chickweed (common chickweed, Stellaria media); conditions: Stellaria media, post-emergence, Postemergence, scale 0 to 100, read-out: Plant response rating, Chickweed
Summary of the method: as §1

corn (Zea mays) = conditions: Zea mays, post-emergence, 336 h, Postemergence, scale 0 to 100
Summary of the method: as §1

[5] = system: galium (catchweed bedstraw, Galium aparine); conditions: Galium, post-emergence, 336 h, Postemergence, scale 0 to 100, read-out: Plant response rating, Galium
Summary of the method: as §1

[6] = system: giant foxtail (Setaria faberii); conditions: Setaria faberi, post-emergence, 336 h, Postemergence, scale 0 to 100, read-out: Plant response rating, Foxtail, Giant
Summary of the method: as §1

[7] = system: johnsongrass (Sorghum halepense); conditions: Sorghum halepense, post-emergence, 336 h, Postemergence, scale 0 to 100, read-out: Plant response rating, Johnsongrass
Summary of the method: as §1

[8] = system: lambsquarters (Chenopodium album); conditions: Chenopodium album, post-emergence, 336 h, Postemergence, scale 0 to 100, read-out: Plant response rating, Lambsquarters
Summary of the method: as §1

[9] = system: large (Lg) crabgrass (Digitaria sanguinalis); conditions: Digitaria sanguinalis, post-emergence, 336 h, Postemergence, scale 0 to 100, read-out: Plant response rating, Crabgrass, Large
Summary of the method: as §1

[10] = system: morningglory (Ipomoea coccinea); conditions: Ipomoea, post-emergence, 336 h, Postemergence, scale 0 to 100, read-out: Plant response rating, Morningglory
Summary of the method: as §1

[11] = system: oilseed rape (Brassica napus); conditions: Brassica napus, post-emergence, Postemergence, scale 0 to 100, read-out: Plant response rating, Oilseed Rape
Summary of the method: as §1

[12] = system: ragweed (common ragweed, Ambrosia elatior); conditions: Ambrosia artemisiifolia, post-emergence, 336 h, Postemergence, scale 0 to 100, read-out: Plant response rating, Ragweed
Summary of the method: as §1

soybean (Glycine max) = conditions: Glycine max, post-emergence, Postemergence, scale 0 to 100, read-out: Plant response rating, Soybean
Summary of the method: as §1

[13] = system: velvetleaf (Abutilon theophrasti); conditions: Abutilon theophrasti, post-emergence, Postemergence, scale 0 to 100, read-out: Plant response rating, Velvetleaf
Summary of the method: as §1

[14] = system: waterhemp (common waterhemp, Amaranthus rudis); conditions: Amaranthus tuberculatus, post-emergence, Postemergence, scale 0 to 100, read-out: Plant response rating, Waterhemp
Summary of the method: as §1

wild oat (Avena fatua) = conditions: Avena fatua, post-emergence, Postemergence, scale 0 to 100, read-out: Plant response rating, Oat, Wild
Summary of the method: as §1

[15] = system: winter wheat (Triticum aestivum); conditions: Triticum aestivum, post-emergence, 336 h, Postemergence, scale 0 to 100, read-out: Plant response rating, Wheat
Summary of the method: as §1

[16] = system: yellow nutsedge (Cyperus esculentus); conditions: Cyperus, post-emergence, 336 h, Postemergence, scale 0 to 100, read-out: Plant response rating, Nutsedge, Yellow
Summary of the method: as §1

`Fc1cccc(Oc2ncc(Cl)cn2)c1Oc1ccc(Cl)nc1` [Compound 20] showed a pest or weed control at 31 g/ha ([1]; 31 g ai/ha) of 5%, a pest or weed control at 62 g/ha ([1]; 62 g ai/ha) of 5% and a pest or weed control at 125 g/ha ([1]; 125 g ai/ha) of 10%. It also gave a pest or weed control at 250 g/ha ([1]; 250 g ai/ha) of 15%, a pest or weed control at 31 g/ha ([2]; 31 g ai/ha) of 5% and a pest or weed control at 62 g/ha ([2]; 62 g ai/ha) of 5%. The pest or weed control at 125 g/ha ([2]; 125 g ai/ha) was 10%, the pest or weed control at 250 g/ha ([2]; 250 g ai/ha) was 10% and the pest or weed control at 31 g/ha ([3]; 31 g ai/ha) was 5%. It also gave a pest or weed control at 62 g/ha ([3]; 62 g ai/ha) of 10%, a pest or weed control at 125 g/ha ([3]; 125 g ai/ha) of 5% and a pest or weed control at 250 g/ha ([3]; 250 g ai/ha) of 15%. The pest or weed control at 31 g/ha ([4]; 31 g ai/ha) was 35%, the pest or weed control at 62 g/ha ([4]; 62 g ai/ha) was 40% and the pest or weed control at 125 g/ha ([4]; 125 g ai/ha) was 45%. It also gave a pest or weed control at 250 g/ha ([4]; 250 g ai/ha) of 80%, a Corn plant response rating (crop injury, 0 = no effect, 100 = complete kill) at 31 g/ha (corn (Zea mays); 31 g ai/ha) of 5% and a Corn plant response rating (crop injury, 0 = no effect, 100 = complete kill) at 62 g/ha (corn (Zea mays); 62 g ai/ha) of 15%. The Corn plant response rating (crop injury, 0 = no effect, 100 = complete kill) at 125 g/ha (corn (Zea mays); 125 g ai/ha) was 20%, the Corn plant response rating (crop injury, 0 = no effect, 100 = complete kill) at 250 g/ha (corn (Zea mays); 250 g ai/ha) was 15% and the pest or weed control at 31 g/ha ([5]; 31 g ai/ha) was 50%. It also gave a pest or weed control at 62 g/ha ([5]; 62 g ai/ha) of 50%, a pest or weed control at 125 g/ha ([5]; 125 g ai/ha) of 70% and a pest or weed control at 250 g/ha ([5]; 250 g ai/ha) of 95%. It also gave a pest or weed control at 31 g/ha ([6]; 31 g ai/ha) of 15%, a pest or weed control at 62 g/ha ([6]; 62 g ai/ha) of 20% and a pest or weed control at 125 g/ha ([6]; 125 g ai/ha) of 15%. For the same compound, the pest or weed control at 250 g/ha ([6]; 250 g ai/ha) was 15%, the pest or weed control at 31 g/ha ([7]; 31 g ai/ha) was 5% and the pest or weed control at 62 g/ha ([7]; 62 g ai/ha) was 5%. It also gave a pest or weed control at 125 g/ha ([7]; 125 g ai/ha) of 5%, a pest or weed control at 250 g/ha ([7]; 250 g ai/ha) of 5% and a pest or weed control at 31 g/ha ([8]; 31 g ai/ha) of 85%. For the same compound, the pest or weed control at 62 g/ha ([8]; 62 g ai/ha) was 75%, the pest or weed control at 125 g/ha ([8]; 125 g ai/ha) was 75% and the pest or weed control at 250 g/ha ([8]; 250 g ai/ha) was 80%. It also gave a pest or weed control at 31 g/ha ([9]; 31 g ai/ha) of 5%, a pest or weed control at 62 g/ha ([9]; 62 g ai/ha) of 5% and a pest or weed control at 125 g/ha ([9]; 125 g ai/ha) of 10%. The pest or weed control at 250 g/ha ([9]; 250 g ai/ha) was 20%, the pest or weed control at 31 g/ha ([10]; 31 g ai/ha) was 30% and the pest or weed control at 62 g/ha ([10]; 62 g ai/ha) was 60%. It also gave a pest or weed control at 125 g/ha ([10]; 125 g ai/ha) of 65%, a pest or weed control at 250 g/ha ([10]; 250 g ai/ha) of 65% and a plant injury at 31 g/ha ([11]; 31 g ai/ha) of 15%. For the same compound, the plant injury at 62 g/ha ([11]; 62 g ai/ha) was 70%, the plant injury at 125 g/ha ([11]; 125 g ai/ha) was 80% and the plant injury at 250 g/ha ([11]; 250 g ai/ha) was 70%. It also gave a pest or weed control at 31 g/ha ([12]; 31 g ai/ha) of 20%, a pest or weed control at 62 g/ha ([12]; 62 g ai/ha) of 20% and a pest or weed control at 125 g/ha ([12]; 125 g ai/ha) of 45%. For the same compound, the pest or weed control at 250 g/ha ([12]; 250 g ai/ha) was 60%, the plant injury at 31 g/ha (soybean (Glycine max); 31 g ai/ha) was 25% and the plant injury at 62 g/ha (soybean (Glycine max); 62 g ai/ha) was 70%. It also gave a plant injury at 125 g/ha (soybean (Glycine max); 125 g ai/ha) of 65%, a plant injury at 250 g/ha (soybean (Glycine max); 250 g ai/ha) of 65% and a pest or weed control at 31 g/ha ([13]; 31 g ai/ha) of 35%. For the same compound, the pest or weed control at 62 g/ha ([13]; 62 g ai/ha) was 30%, the pest or weed control at 125 g/ha ([13]; 125 g ai/ha) was 35% and the pest or weed control at 250 g/ha ([13]; 250 g ai/ha) was 55%. For the same compound, the pest or weed control at 31 g/ha ([14]; 31 g ai/ha) was 85%, the pest or weed control at 62 g/ha ([14]; 62 g ai/ha) was 90% and the pest or weed control at 125 g/ha ([14]; 125 g ai/ha) was 90%. The pest or weed control at 250 g/ha ([14]; 250 g ai/ha) was 95%, the pest or weed control at 31 g/ha (wild oat (Avena fatua); 31 g ai/ha) was 5% and the pest or weed control at 62 g/ha (wild oat (Avena fatua); 62 g ai/ha) was 10%. For the same compound, the pest or weed control at 125 g/ha (wild oat (Avena fatua); 125 g ai/ha) was 10%, the pest or weed control at 250 g/ha (wild oat (Avena fatua); 250 g ai/ha) was 10% and the plant injury at 31 g/ha ([15]; 31 g ai/ha) was 0%. It also gave a plant injury at 62 g/ha ([15]; 62 g ai/ha) of 0%, a plant injury at 125 g/ha ([15]; 125 g ai/ha) of 5% and a plant injury at 250 g/ha ([15]; 250 g ai/ha) of 5%. It also gave a pest or weed control at 31 g/ha ([16]; 31 g ai/ha) of 0%, a pest or weed control at 62 g/ha ([16]; 62 g ai/ha) of 5% and a pest or weed control at 125 g/ha ([16]; 125 g ai/ha) of 10%. The pest or weed control at 250 g/ha ([16]; 250 g ai/ha) was 10%.
